Results published in US10596259B2, “Tumor radiosensitization with monomethyl auristatin E (MMAE) and derivatives thereof” (The Regents of the University of California, priority 2015, dated 2020).
“Also recorded” adds a separate entry of the source. Like-named read-outs stand apart in the source and are kept apart here. Non-standard residues stand in square brackets, D forms with d. Residues, ends and D or L forms follow the SMILES beside them. *: point of attachment. Dolaproine = CO[C@@H]([C@@H]1CCCN1)[C@@H](C)C(=O)O; Dil = CC[C@H](C)[C@H](NC)[C@@H](CC(=O)O)OC; X1 = C[C@@H](N*)[C@@H](O)c1ccccc1; NMeV = CN[C@H](C(=O)O)C(C)C

Legend:
[1] = system: HCT-116 cells; test: Apoptosis (sub-G1 population) after MMAE and IR; format: cell-based, Human
Experimental: (§1) Cells were treated with MMAE for 24 hours and then fixed in methanol. Cells were treated with RNAse, stained with propidium iodide (PI), and analyzed by FACS using FlowJo software.
(§2) Because MMAE reduced clonogenic cell survival following IR, we tested whether MMAE increased apoptosis in irradiated cells. HCT-116 cells were treated with MMAE for 24 hours followed by IR. Cells were collected 24 hours after IR and the sub-G1 population (apoptotic) was measured. […] Because MMAE increased DNA double-strand breaks in irradiated cells (FIG. 34), we then evaluated whether MMAE altered the DNA damage response in irradiated cells. HCT-116 cells were treated with MMAE for 24 hours followed by 6 Gy. Cells were collected 1 hour after IR, and activation of the DNA damage checkpoint proteins CHK1 (pS345) and CHK2 (pT68) was ascertained (FIG. 36B). […] Upon DNA damage, histone H2A becomes phosphorylated at S139, γH2AX.

[2] = system: PANC-1 cells; test: Cell cycle analysis by FACS with PI staining; format: cell-based, Human; details: 2 nmol/L MMAE, 24 hours
Experimental: (§3) Cells were treated with 0, 1, 2, or 5 nM MMAE for 24 hours and then fixed in methanol. Cells were treated with RNAse, stained with propidium iodide and analyzed by FACS using FloJo software.
as §1

[3] = system: HCT-116 cells; test: Cell cycle analysis by FACS with PI staining; format: cell-based, Human
Experimental: as §3, §1

[4] = system: CHK1 (pS345); test: Immunoblot for DNA damage checkpoint activation in HCT-116 cells; format: cell-based, Human; details: MMAE 24 hours, then 6 Gy
Experimental: MMAE- and IR-treated cells were harvested and lysed in RIPA buffer with protease and phosphatase inhibitors (Roche). Thirty micrograms of lysate underwent electrophoresis using 4% to 12% Bis-Tris gels (Life Technologies), transferred to polyvinylidene difluoride (PVDF) membranes, and incubated with indicated primary antibodies (Cell Signaling Technology). Blots were developed by ECL (Pierce).
as §2

[5] = system: HCT-116 cells; test: Alamar Blue cell viability assay; format: cell-based, Human
Experimental: Alamar Blue (also known as resazurin) was added to the cells and allowed to incubate for 2 hrs at 37° C. Plates were analyzed using a plate reader with fluorescence measured at 560 nm. For irradiated cells, cells were treated with MMAE overnight followed by 6 Gy.
(§4) Alamar Blue (resazurin) was added to the cells and allowed to incubate for 2 hrs at 37° C. Plates were analyzed using a plate reader with fluorescence measured at 560 nm.
Cells were plated in 96-well plates and exposed to MMAE or paclitaxel for 72 hours and analyzed at 560 nm. For irradiated cells, cells were treated with MMAE overnight followed by 6 Gy.

[6] = system: CAL-27 tumor xenografts; test: In vivo tumor xenograft growth with or without IR; set-up: species or system mice; details: day 0 iv: 0.5 nmoles antibody or 2 nmoles free MMAE; no IR
Experimental: CAL-27 tumor xenografts were established and tumor growth was measured with digital calipers. Tumor volume was calculated using the formula as ½*Length*Width^2. Mice were randomized into groups once the average tumor volume reached >150 mm^3. Mice were assigned to indicated groups in the Results. […] Free MMAE was injected on an equimolar basis to ACPP-cRGD-MMAE in final volume of 3% DMSO. MMAE doses and IR fractionation are as indicated in the Results.

[7] = system: XPA-1 cells; test: Neutral comet assay (DNA double strand breaks); format: cell-based; details: MMAE overnight, then IR
Experimental: (§5) Cells were treated for indicated length and doses of MMAE followed by 6 Gy. Cells were harvested 15 minutes after IR and underwent neutral electrophoresis (Trevigen). Comet tails were counted in multiple fields (>60 cells per sample) and analyzed using CometScore (TriTek Corp).

[8] = system: 779E cells; test: Neutral comet assay (DNA double strand breaks); format: cell-based, Human; details: MMAE overnight in combination with IR
Experimental: (§6) Cells were treated for 24 hours with indicated doses of MMAE and then irradiated with 6 Gy. Cells were harvested 15 minutes post IR, suspended in agarose gel and lysed per assay directions (Trevigen). Samples underwent electrophoresis under neutral conditions and were then stained with Sybr Green. Comet tails were counted in multiple fields (>60 cells per sample) and analyzed using CometScore (TriTek Corp).
as §5

[9] = system: HCT-116 cells; test: Neutral comet assay (DNA double strand breaks); format: cell-based, Human
Experimental: as §6, §5

[10] = system: PANC-1 cells; test: Clonogenic survival assay with IR; format: cell-based, Human
Experimental: (§7) Cells were treated with 0, 1, 2, or 5 nM of MMAE for 24 hours and then irradiated with 0, 2, or 6 Gy. Following IR, cells were counted, re-plated at varying cell numbers in drug free media. Colonies were counted […]. Colonies were then fixed and stained with crystal violet to quantify colonies.
(§8) Cells were treated with MMAE for 24 hours and then irradiated with 0 to 8 Gy. Following IR, cells were replated in drug-free media. Colonies formed over 10 to 14 days and were counted.

[11] = system: HCT-116 cells; test: Clonogenic survival assay with IR; format: cell-based, Human
Experimental: as §7, §8

[12] = system: PANC-1 tumor xenografts; test: In vivo tumor xenograft growth with or without IR; set-up: species or system mice
Experimental: HCT-116 or PANC-1 tumor xenografts were established and tumor growth was measured with digital calipers. Tumor volume was calculated using the formula as ½*Length*Width^2. Mice were randomized into groups once the average tumor volume reached 250 mm^3. Mice were assigned to groups: Vehicle, ACPP-cRGD-MMAE, fractionated IR or the combination. ACPP-cRGD-MMAE lyophilized powder was suspended in sterile deionized water just prior to tail vein injection. MMAE doses and IR fractionation are as indicated in the Results.
HCT-116 or PANC-1 tumor growth was measured with digital calipers. Tumor volume was calculated using the formula as ½×length×width^2. Mice were randomized into groups as indicated in Results once the average tumor volume reached >200 mm^3. Free MMAE was injected on an equimolar basis to ACPP-cRGD-MMAE.

[13] = system: LN-229 cells; test: Alamar Blue cell viability assay; format: cell-based; details: 72 hours
Experimental: as §4

## CC[C@H](C)[C@@H]([C@@H](CC(=O)N1CCC[C@H]1[C@H](OC)[C@@H](C)C(=O)N[C@H](C)[C@@H](O)c1ccccc1)OC)N(C)C(=O)[C@@H](NC(=O)[C@@H](NC)C(C)C)C(C)C [MMAE, monomethyl auristatin E] (H-[NMeV]V[Dil][Dolaproine]-X1)
[1]; MMAE 24 hours then IR, collected 24 hours after IR
  apoptosis, IR combined with MMAE vs MMAE: no further increase in apoptosis
[1]; MMAE alone, 24 hours
  apoptosis vs vehicle: significant increase in apoptosis
[2]
  cells blocked in G2-M: 50%
[3]; 1 nmol/L MMAE, 24 hours
  cell-cycle profile: did not alter the cell-cycle profile
[3]; 5 nM (5 nmol/L) MMAE, 24 hrs
  cells blocked in G2/M: 50%
[4]
  CHK1 activation in irradiated cells: enhanced CHK1 activation
[5]; 72 hours exposure (Example 3), read-out: IC50
  IC50: 1.7 nM
[5]; 72 hours exposure, read-out: IC50
  IC50: 1.66 nM
[5]; MMAE alone, no IR (Example 3), read-out: IC50 for MMAE
  IC50: 1.6 nM
[5]; MMAE alone, no IR, continuous exposure, viability 72 hours after initiation, read-out: IC50 for MMAE
  IC50: 1.58 nM
[5]; MMAE and 6 Gy IR (Example 3), read-out: IC50 for MMAE
  IC50: 0.8 nM
[5]; MMAE overnight then 6 Gy IR, continuous exposure, viability at 72 hours, read-out: IC50 for MMAE
  IC50: 0.78 nM
[6]
  tumor growth, non-irradiated tumors: delayed tumor growth
[7]
  comet tail length: significantly increased comet tail length
[8]
  comet tail length: significantly increased comet tail length
[9]; 1 nM MMAE 24 hours, then 6 Gy
  comet tail length vs IR alone: did not significantly increase; also recorded: did not increase DNA damage over IR alone
[9]; 5 nM MMAE 24 hours, then 6 Gy
  comet tail length vs IR alone: significant increase; also recorded: significantly increased comet tail length
[9]; 5 nmol/L MMAE for 2 or 4 hours, then IR
  comet tail length vs IR alone: did not increase comet tail length
[9]; non-irradiated, 1 or 5 nM MMAE overnight
  comet tail length vs vehicle: no significant effect
[10]; 2 nM MMAE overnight, then irradiated, re-plated drug free
  clonogenic survival curve vs vehicle: loss of the shoulder region of the survival curve at 2 Gy; also recorded: increased tumor cell kill at doses as low as 2 Gy
[10]; 5 nM MMAE
  colony formation: Too few colonies formed
[10]; 1 or 2 nM MMAE overnight, 2 Gy
  surviving fraction at 2 Gy (SF2) vs vehicle: significantly reduced
[11]; 1 nM MMAE overnight
  surviving fraction at 2 Gy (SF2) vs vehicle: not significantly different
[11]; 5 nM MMAE overnight, then irradiated, re-plated drug free
  clonogenic survival curve vs vehicle: loss of the shoulder region of the survival curve at 2 Gy; also recorded: increased tumor cell kill at doses as low as 2 Gy
[11]; 2 and 5 nM MMAE overnight
  surviving fraction at 2 Gy (SF2) vs vehicle: significant reduction
[12]; day 30, + IR
  V(end)/V(0) ≤ 1, PANC-1, expt 1: 0%
[12]; day 30, no IR
  V(end)/V(0) ≤ 1, PANC-1, expt 1: 0%
[12]; expt 1, day 20, no IR
  tumor xenografts smaller than starting tumor volume: None
[12]; expt 1, day 20, with IR
  tumor xenografts less than or equal to starting tumor volume: 4/10
[12]; expt 1: 6 nmoles days 0 and 1 plus IR 3 Gy days 1 and 2, listed as free MMAE
  tumor regression vs IR or free MMAE alone: increased tumor xenograft regression; also recorded: profound tumor xenograft regression
[12]; expt 1: iv days 0 and 1, 6 nmoles/day, no IR, day 30
  average tumor volume relative to untreated controls: 75%
[12]; expt 1: iv days 0 and 1, 6 nmoles/day, no IR, listed as free MMAE
  tumor growth vs untreated control: modest, but statistically significant growth delay; also recorded: small but statistically significant growth delay
[13]
  IC50: 3.8 nM
